Test results as given in patent US7851638B2, “Cyclohexanesulfonyl derivatives as GLYT1 inhibitors to treat schizophrenia” (Merck Sharp & Dohme Limited, priority 2005, dated 2010).

melting point: 148 to 151 °C
Structure (SMILES): Cc1nc(C(F)(F)F)ccc1C(=O)NCC1(CC2CC2)CCC(S(=O)(=O)CC2CC2)CC1 (stereo not shown) [Example 3, N-(4-Cyclopropylmethanesulfonyl-1-cyclopropylmethyl-cyclohexylmethyl)-2-methyl-6-trifluoromethyl-nicotinamide]
